Our source for the Ki values is US10392391B2 (Vertex Pharmaceuticals Incorporated, priority 2012, dated 2019).

Structures are written as SMILES.

In one test the target is ATR kinase (full-length ATR) (Homo sapiens (Human), UniProt Q13535). Briefly: ATR inhibition assay (radioactive-phosphate incorporation). Format: biochemical.
Chain of ATR kinase (full-length ATR) (Q13535 whole entry): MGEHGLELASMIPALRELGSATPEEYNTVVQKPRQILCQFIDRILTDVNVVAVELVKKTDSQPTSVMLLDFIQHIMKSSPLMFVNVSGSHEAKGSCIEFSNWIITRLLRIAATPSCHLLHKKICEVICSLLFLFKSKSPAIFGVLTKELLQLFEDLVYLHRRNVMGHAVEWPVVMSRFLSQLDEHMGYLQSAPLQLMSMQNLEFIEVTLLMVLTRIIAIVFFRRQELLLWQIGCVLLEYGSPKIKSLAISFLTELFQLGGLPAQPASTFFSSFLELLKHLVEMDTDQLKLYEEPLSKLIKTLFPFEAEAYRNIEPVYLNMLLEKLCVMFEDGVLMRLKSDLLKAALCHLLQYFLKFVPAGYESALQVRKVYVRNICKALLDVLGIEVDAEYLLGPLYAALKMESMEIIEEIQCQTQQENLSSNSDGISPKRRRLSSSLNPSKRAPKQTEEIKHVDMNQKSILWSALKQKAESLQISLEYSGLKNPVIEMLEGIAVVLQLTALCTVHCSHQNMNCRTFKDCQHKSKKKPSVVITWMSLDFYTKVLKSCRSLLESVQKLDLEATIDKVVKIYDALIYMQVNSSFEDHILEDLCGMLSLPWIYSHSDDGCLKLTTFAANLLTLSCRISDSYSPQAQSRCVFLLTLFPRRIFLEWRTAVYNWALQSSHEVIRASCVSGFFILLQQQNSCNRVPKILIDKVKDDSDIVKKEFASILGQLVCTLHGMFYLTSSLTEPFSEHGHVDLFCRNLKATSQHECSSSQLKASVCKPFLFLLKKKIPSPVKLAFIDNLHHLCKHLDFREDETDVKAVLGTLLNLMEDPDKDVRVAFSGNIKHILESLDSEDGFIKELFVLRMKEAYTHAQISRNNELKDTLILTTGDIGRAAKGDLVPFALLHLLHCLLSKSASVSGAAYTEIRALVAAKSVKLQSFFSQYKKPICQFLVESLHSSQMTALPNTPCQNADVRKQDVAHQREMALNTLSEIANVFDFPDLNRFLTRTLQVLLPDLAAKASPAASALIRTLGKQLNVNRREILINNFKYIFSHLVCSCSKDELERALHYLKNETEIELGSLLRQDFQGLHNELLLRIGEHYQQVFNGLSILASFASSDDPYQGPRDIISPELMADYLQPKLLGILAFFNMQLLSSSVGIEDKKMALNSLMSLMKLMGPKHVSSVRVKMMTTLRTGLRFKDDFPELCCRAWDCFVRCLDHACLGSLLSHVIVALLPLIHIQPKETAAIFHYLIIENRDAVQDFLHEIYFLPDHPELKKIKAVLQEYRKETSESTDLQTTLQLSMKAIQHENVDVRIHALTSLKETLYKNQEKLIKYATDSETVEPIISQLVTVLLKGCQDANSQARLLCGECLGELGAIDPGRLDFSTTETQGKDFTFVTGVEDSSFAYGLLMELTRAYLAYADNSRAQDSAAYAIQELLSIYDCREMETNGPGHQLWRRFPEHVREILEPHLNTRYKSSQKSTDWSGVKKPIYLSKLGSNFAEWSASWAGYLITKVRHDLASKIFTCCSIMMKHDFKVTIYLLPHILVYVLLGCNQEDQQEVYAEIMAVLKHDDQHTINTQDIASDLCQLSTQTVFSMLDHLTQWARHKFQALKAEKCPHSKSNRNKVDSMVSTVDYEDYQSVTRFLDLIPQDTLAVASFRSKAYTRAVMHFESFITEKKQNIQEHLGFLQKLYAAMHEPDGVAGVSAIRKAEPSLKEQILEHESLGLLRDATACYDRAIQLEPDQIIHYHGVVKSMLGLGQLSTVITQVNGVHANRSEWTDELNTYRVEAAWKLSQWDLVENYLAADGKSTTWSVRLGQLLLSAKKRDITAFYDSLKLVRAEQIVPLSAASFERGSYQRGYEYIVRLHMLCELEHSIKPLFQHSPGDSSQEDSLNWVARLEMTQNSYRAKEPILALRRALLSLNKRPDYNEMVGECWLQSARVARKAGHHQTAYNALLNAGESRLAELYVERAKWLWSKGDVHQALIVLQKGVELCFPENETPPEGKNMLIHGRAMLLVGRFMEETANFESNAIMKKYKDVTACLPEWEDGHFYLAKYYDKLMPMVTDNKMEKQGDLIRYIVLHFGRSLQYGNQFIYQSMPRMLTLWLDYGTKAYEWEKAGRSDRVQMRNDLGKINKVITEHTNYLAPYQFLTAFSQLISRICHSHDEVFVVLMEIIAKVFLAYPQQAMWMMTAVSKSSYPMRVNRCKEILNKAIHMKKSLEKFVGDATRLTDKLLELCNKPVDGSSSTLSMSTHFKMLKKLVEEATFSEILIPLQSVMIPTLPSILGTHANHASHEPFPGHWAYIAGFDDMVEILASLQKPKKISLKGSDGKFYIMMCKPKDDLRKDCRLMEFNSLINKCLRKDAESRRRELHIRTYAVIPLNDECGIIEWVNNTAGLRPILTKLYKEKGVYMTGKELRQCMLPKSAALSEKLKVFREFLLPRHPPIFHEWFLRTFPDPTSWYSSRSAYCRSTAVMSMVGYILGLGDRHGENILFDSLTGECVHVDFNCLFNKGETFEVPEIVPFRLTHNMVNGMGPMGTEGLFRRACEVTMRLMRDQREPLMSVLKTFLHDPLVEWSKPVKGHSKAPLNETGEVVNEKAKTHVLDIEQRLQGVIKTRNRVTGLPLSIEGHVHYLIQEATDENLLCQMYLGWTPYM
Settings: not given
An outline of the steps: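 Ki(app) was fitted by non-linear regression to background-corrected initial rates. Full-length ATR (5 nM) phosphorylated 800 μM peptide using 10 μM [γ-33P]ATP at 25° C in Tris/HCl pH 7.5 buffer with MgCl2, DTT and 7% DMSO. After 10-minute compound pre-incubation and 24-hour reaction, phosphocellulose filters were scintillation counted.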
`Cn1ccc2cncc(NC(=O)c3c(N)nn4cc(F)cnc34)c21` [I-N-259, 2-amino-6-fluoro-N-(1-methyl-1H-pyrrolo[3,2-c]pyridin-7-yl)pyrazolo[1,5-a]pyrimidine-3-carboxamide]: the Ki lay within 1000 to 5000 nM.

Staying with this test, now noted: Ki(app), 5 nM full-length ATR, 10 μM ATP, 25° C.
As for `Nc1nn2cc(F)cnc2c1C(=O)Nc1cncc(F)c1N1CCC(C(=O)N2CCC(N3CCCCC3)CC2)CC1` [I-G-60, N-(4-(4-([1,4′-bipiperidine]-1′-carbonyl)piperidin-1-yl)-5-fluoropyridin-3-yl)-2-amino-6-fluoropyrazolo[1,5-a]pyrimidine-3-carboxamide], the Ki fell in the range of 10 to 1000 nM.

`COCCN1CCN(c2ccncc2NC(=O)c2c(N)nn3cc(Cl)cnc23)CC1` [I-N-60, 2-amino-6-chloro-N-(4-(4-(2-methoxyethyl)piperazin-1-yl)pyridin-3-yl)pyrazolo[1,5-a]pyrimidine-3-carboxamide]: the Ki was 10 to 1000 nM.

As to `CN1CCC[C@@H]1C(=O)N1CCN(c2c(F)cncc2NC(=O)c2c(N)nn3cc(F)cnc23)CC1` [I-N-181, (R)-2-amino-6-fluoro-N-(5-fluoro-4-(4-(1-methylpyrrolidine-2-carbonyl)piperazin-1-yl)pyridin-3-yl)pyrazolo[1,5-a]pyrimidine-3-carboxamide], the Ki fell in the range of 10 to 1000 nM.

For `CCOc1ccncc1NC(=O)c1c(N)nn2cc(F)cnc12` [I-O-14, 2-amino-N-(4-ethoxypyridin-3-yl)-6-fluoropyrazolo[1,5-a]pyrimidine-3-carboxamide], the Ki fell in the range of 10 to 1000 nM.

On to `CO[C@H]1CCN(C(=O)C2CCN(c3c(F)cncc3NC(=O)c3c(N)nn4cc(F)cnc34)CC2)C1` [I-G-99, (S)-2-amino-6-fluoro-N-(5-fluoro-4-(4-(3-methoxypyrrolidine-1-carbonyl)piperidin-1-yl)pyridin-3-yl)pyrazolo[1,5-a]pyrimidine-3-carboxamide], for which the Ki fell in the range of 10 to 1000 nM.

On to `CN1CCN(C(=O)C2CCN(c3c(F)cncc3NC(=O)c3c(N)nn4cc(Cl)cnc34)CC2)CC1` [I-G-5, 2-amino-6-chloro-N-(5-fluoro-4-(4-(4-methylpiperazine-1-carbonyl)piperidin-1-yl)pyridin-3-yl)pyrazolo[1,5-a]pyrimidine-3-carboxamide], for which the Ki is 10 to 1000 nM.

Take `Nc1nn2cc(F)cnc2c1C(=O)Nc1cncc(F)c1N1CCN(C(=O)C2CCN(C3COC3)CC2)CC1` [I-N-211, 2-amino-6-fluoro-N-(5-fluoro-4-(4-(1-(oxetan-3-yl)piperidine-4-carbonyl)piperazin-1-yl)pyridin-3-yl)pyrazolo[1,5-a]pyrimidine-3-carboxamide]: the Ki lay within 10 to 1000 nM.

As to `CN1CCN(c2ccncc2NC(=O)c2c(N)nn3cc(Cl)cnc23)CC1CO` (stereo not shown) [I-N-63, 2-amino-6-chloro-N-(4-(3-(hydroxymethyl)-4-methylpiperazin-1-yl)pyridin-3-yl)pyrazolo[1,5-a]pyrimidine-3-carboxamide], the Ki fell in the range of 10 to 1000 nM.

In the case of `Cc1ccncc1-c1ccncc1NC(=O)c1c(N)nn2cc(F)cnc12` [I-C-30, 2-amino-6-fluoro-N-(4-methyl-[3,4′-bipyridin]-3′-yl)pyrazolo[1,5-a]pyrimidine-3-carboxamide], the Ki is 10 to 1000 nM.

On to `CN1CCC[C@H]1C(=O)N1CCN(c2ccncc2NC(=O)c2c(N)nn3cc(F)cnc23)CC1` [I-N-198, (S)-2-amino-6-fluoro-N-(4-(4-(1-methylpyrrolidine-2-carbonyl)piperazin-1-yl)pyridin-3-yl)pyrazolo[1,5-a]pyrimidine-3-carboxamide], for which the Ki was in the range of 10 to 1000 nM.

For `CCN1CCCCC1C(=O)N1CCN(c2c(F)cncc2NC(=O)c2c(N)nn3cc(F)cnc23)CC1` (stereo not shown) [I-N-204, 2-amino-N-(4-(4-(1-ethylpiperidine-2-carbonyl)piperazin-1-yl)-5-fluoropyridin-3-yl)-6-fluoropyrazolo[1,5-a]pyrimidine-3-carboxamide], the Ki was in the range of 10 to 1000 nM.

Turning to `Nc1nn2cc(F)cnc2c1C(=O)Nc1cncc(F)c1N1CCC(CN2CCOCC2)CC1` [I-N-149, 2-amino-6-fluoro-N-(5-fluoro-4-(4-(morpholinomethyl)piperidin-1-yl)pyridin-3-yl)pyrazolo[1,5-a]pyrimidine-3-carboxamide], the Ki lay within 10 to 1000 nM.

On to `CN1CCN(c2ccc(-c3ccncc3NC(=O)c3c(N)nn4cc(F)cnc34)cn2)CC1` [I-C-21, 2-amino-6-fluoro-N-(6-(4-methylpiperazin-1-yl)-[3,4′-bipyridin]-3′-yl)pyrazolo[1,5-a]pyrimidine-3-carboxamide], for which the Ki lay in the range of 10 to 1000 nM.

As to `Nc1nn2cc(F)cnc2c1C(=O)Nc1cncc(F)c1N1CCC(C(=O)N2CCN3CC[C@H]2C3)CC1` [I-G-70, N-(4-(4-((5S)-1,4-diazabicyclo[3.2.1]octane-4-carbonyl)piperidin-1-yl)-5-fluoropyridin-3-yl)-2-amino-6-fluoropyrazolo[1,5-a]pyrimidine-3-carboxamide], the Ki lay within 10 to 1000 nM.

In the case of `Nc1nn2cc(Cl)cnc2c1C(=O)Nc1cnccc1O[C@@H]1CCNC1` [I-O-77, (R)-2-amino-6-chloro-N-(4-(pyrrolidin-3-yloxy)pyridin-3-yl)pyrazolo[1,5-a]pyrimidine-3-carboxamide], the Ki was 10 to 1000 nM.

In the case of `CO[C@H]1CCN(C(=O)C2CCN(c3ccncc3NC(=O)c3c(N)nn4cc(F)cnc34)CC2)C1` [I-G-94, (S)-2-amino-6-fluoro-N-(4-(4-(3-methoxypyrrolidine-1-carbonyl)piperidin-1-yl)pyridin-3-yl)pyrazolo[1,5-a]pyrimidine-3-carboxamide], the Ki is 10 to 1000 nM.

With `CC(=O)N1CCC(c2ccncc2NC(=O)c2c(N)nn3cc(F)cnc23)CC1` [I-C-69, N-(4-(1-acetylpiperidin-4-yl)pyridin-3-yl)-2-amino-6-fluoropyrazolo[1,5-a]pyrimidine-3-carboxamide], the Ki lay in the range of 10 to 1000 nM.

Take `CC(=O)N1CCC2(CCN(c3ccncc3NC(=O)c3c(N)nn4cc(F)cnc34)CC2)C1` [I-N-257, N-(4-(2-acetyl-2,8-diazaspiro[4.5]decan-8-yl)pyridin-3-yl)-2-amino-6-fluoropyrazolo[1,5-a]pyrimidine-3-carboxamide]: the Ki was in the range of 10 to 1000 nM.

Consider `Cc1nc(F)ccc1-c1ccncc1NC(=O)c1c(N)nn2cc(F)cnc12` [I-C-34, 2-amino-6-fluoro-N-(6-fluoro-2-methyl-[3,4′-bipyridin]-3′-yl)pyrazolo[1,5-a]pyrimidine-3-carboxamide], for which the Ki was 10 to 1000 nM.

Turning to `Nc1nn2cc(F)cnc2c1C(=O)Nc1cncc(F)c1N1CCC(C(=O)N2CC(F)C2)CC1` [I-G-74, 2-amino-6-fluoro-N-(5-fluoro-4-(4-(3-fluoroazetidine-1-carbonyl)piperidin-1-yl)pyridin-3-yl)pyrazolo[1,5-a]pyrimidine-3-carboxamide], the Ki lay in the range of 10 to 1000 nM.

As for `Nc1nn2cc(F)cnc2c1C(=O)Nc1cncc(F)c1N1CCC(C(=O)N2CCN3CCCC3C2)CC1` (stereo not shown) [I-G-10, 2-amino-6-fluoro-N-(5-fluoro-4-(4-(octahydropyrrolo[1,2-a]pyrazine-2-carbonyl)piperidin-1-yl)pyridin-3-yl)pyrazolo[1,5-a]pyrimidine-3-carboxamide], the Ki fell in the range of 10 to 1000 nM.

Regarding `Nc1nn2cc(F)cnc2c1C(=O)Nc1cnccc1N1CCC(C(=O)N2CCC3(COC3)C2)CC1` [I-G-84, N-(4-(4-(2-oxa-6-azaspiro[3.4]octane-6-carbonyl)piperidin-1-yl)pyridin-3-yl)-2-amino-6-fluoropyrazolo[1,5-a]pyrimidine-3-carboxamide], the Ki lay within 10 to 1000 nM.

Turning to `CN1CCN2CCN(c3c(F)cncc3NC(=O)c3c(N)nn4cc(F)cnc34)CC2C1=O` (stereo not shown) [I-N-240, 2-amino-6-fluoro-N-(5-fluoro-4-(8-methyl-9-oxohexahydro-1H-pyrazino[1,2-a]pyrazin-2(6H)-yl)pyridin-3-yl)pyrazolo[1,5-a]pyrimidine-3-carboxamide], the Ki was in the range of 10 to 1000 nM.

On to `COc1ccncc1NC(=O)c1c(N)nn2cc(Cl)cnc12` [I-O-57, 2-amino-6-chloro-N-(4-methoxypyridin-3-yl)pyrazolo[1,5-a]pyrimidine-3-carboxamide], for which the Ki was 10 to 1000 nM.

For the compound `Nc1nn2cc(F)cnc2c1C(=O)Nc1cnccc1N1CC(=O)N2CCCC2C1` (stereo not shown) [I-N-222, 2-amino-6-fluoro-N-(4-(4-oxohexahydropyrrolo[1,2-a]pyrazin-2(1H)-yl)pyridin-3-yl)pyrazolo[1,5-a]pyrimidine-3-carboxamide], the Ki is 10 to 1000 nM.

On to `Nc1nn2cc(F)cnc2c1C(=O)Nc1cncc(Cl)c1N1CCC(C(=O)N2CCN3CCC2C3)CC1` (stereo not shown) [I-G-69, N-(4-(4-(1,4-diazabicyclo[3.2.1]octane-4-carbonyl)piperidin-1-yl)-5-chloropyridin-3-yl)-2-amino-6-fluoropyrazolo[1,5-a]pyrimidine-3-carboxamide], for which the Ki was 10 to 1000 nM.

With `Nc1nn2cc(Cl)cnc2c1C(=O)Nc1cnccc1N1CCC(N2CCn3ccnc3C2)CC1` [I-N-102, 2-amino-6-chloro-N-(4-(4-(5,6-dihydroimidazo[1,2-a]pyrazin-7(8H)-yl)piperidin-1-yl)pyridin-3-yl)pyrazolo[1,5-a]pyrimidine-3-carboxamide], the Ki fell in the range of 10 to 1000 nM.

With `Nc1nn2cc(F)cnc2c1C(=O)Nc1cncc(F)c1N1CCN(C(=O)C2CNCCO2)CC1` (stereo not shown) [I-N-172, 2-amino-6-fluoro-N-(5-fluoro-4-(4-(morpholine-2-carbonyl)piperazin-1-yl)pyridin-3-yl)pyrazolo[1,5-a]pyrimidine-3-carboxamide], the Ki is 10 to 1000 nM.

On to `Nc1nn2cc(F)cnc2c1C(=O)Nc1cncc(F)c1N1CCC(C(=O)N2CCNC3CC32)CC1` (stereo not shown) [I-G-62, N-(4-(4-(2,5-diazabicyclo[4.1.0]heptane-2-carbonyl)piperidin-1-yl)-5-fluoropyridin-3-yl)-2-amino-6-fluoropyrazolo[1,5-a]pyrimidine-3-carboxamide], for which the Ki was in the range of 10 to 1000 nM.

As for `C[C@@H]1CN(C(=O)C2CCN(c3c(F)cncc3NC(=O)c3c(N)nn4cc(F)cnc34)CC2)CCN1` [I-G-45, (R)-2-amino-6-fluoro-N-(5-fluoro-4-(4-(3-methylpiperazine-1-carbonyl)piperidin-1-yl)pyridin-3-yl)pyrazolo[1,5-a]pyrimidine-3-carboxamide], the Ki was 10 to 1000 nM.
